In patent US20200239547A1, “ANTICANCER PEPTIDES” (IDP DISCOVERY PHARMA, S.L., priority 2017, published 2020):
Starred links: 1 amine or outer side, 2 acyl side, 3 side chain; linkers in the order of their positions; H or OH if unused. Positions of bridges follow the written chain, without caps; N, C: chain ends. Non-standard residues stand in square brackets, D forms with d. Residues, ends and D or L forms follow the SMILES beside them. No end group written: not given here. ξ: configuration not given here. ξαMeNle(6-ylidene) = CC(CCCC=[*:3])(N[*:1])C(=O)[*:2]; X1 = CC(CCCCCCC=[*:3])(N[*:1])C(=O)[*:2]; R8 = C=CCCCCCC[C@@](C)(N)C(=O)O; S5 = C=CCCC[C@](C)(N)C(=O)O

Key:
[1] = target: MCF-7, epithelial (breast cancer)
Procedure: MCF-7, epithelial (breast cancer), ECACC: 86012803
(§6) Cell line MCF-7 was cultured in incubator under CO2 (6%) at 37° C. in DMEM high glucose (Dulbecco's Modified Eagle Solution, Gibco-BRL 31966-21) medium with 10% fetal bovine serum inactivated (FBS) (Gibco-BRL 10106-169). Cell lines HL-60, RPMI and U266 were cultured in incubator at 37° C. in RPMI-1640 (Sigma R8758) medium with 10% of fetal bovine serum inactivated (FBS) and 2 mM glutamine (Sigma G7513).
(§7) During the amplification step and the assays adherent cells were rinsed with DPBS (Dulbecco's Phosphate Buffered Saline, Sigma D1283) three times and afterward treated for 5 minutes with trypsin ([0.5 g/ml]/EDTA [0.2 g/ml]) (Gibco-BRL, 15400054) in solution of DPBS at 37° C., and, once detached, transferred in the culturing medium. No-adherent cells were centrifuged and transferred in the culturing medium. Cells were counted in a Neubauer chamber after labelling with Tripan-Blue.
(§8) MTT: 1. Stock solution of MTT (475989 Calbiochem) was 5 mg/ml in PBS 1×. As negative control (experiment noise) 3 wells were treated with 20 μl/well of a solution of SDS 10% in H2O. The same control was used for Alamar Blue/Hexosaminidase. 10 μl/well of MTT solution were added and the plate was incubated for 3-4 hr. The medium was discarded and 100 μl of extracting buffer (PBS 1×, 15% SDS, 50% Na N,N-Dimethylformamide, pH 4.7) were added to each well. Plates were incubated for 16h at room temperature under orbital shaking. Absorbance at 570 nm was finally measured.
(§9) Alamar Blue: 10 μl Alamar Blue solution was added to each well and the plates were incubated for 4 in the incubator. Fluorescence ratio at 535/590 (excitation/emission) was measured in Cytofluor (Millipore) fluorimeter. Blank control was determined by lysis of untreated cells with con 2% of Triton X100, right before adding Alamar Blue solution.
(§10) Hexosaminidase activity test: after Alamar Blue lecture, medium was discarded and plates were rinsed once with PBS. 60 μl hexosaminidase substrate (p-nitrophenol-N-acetyl-beta-D-glucosamide 7.5 mM [Sigma N-9376], sodium citrate 0.1 M, pH 5.0, 0.25% Triton X-100) was added to each well and the plates were incubated at 37° C. for 2-5 h, according to the cell type (hexosaminidase activity changes according to the cell type). […] Blank control was the same as described before.
(§11) Data analysis was performed calculating the percentage of cell viability normalized vs. the values of negative control, which was considered equal to 100%. The dose/response curve was fitted through the sigmoidal equation dose-response (variable slope) and the ECK values were calculated as follow:

[2] = system: HL-60, promyeloblast (acute myelocytic leukemia, AML)
Procedure: HL-60, promyeloblast (acute myelocytic leukemia, AML), ECACC: 98070106
as §6, §7, §8, §9, §10, §11

[3] = system: RPMI, lymphoblast (myeloma)
Procedure: RPMI, lymphoblast (myeloma), ATCC® CCL155™
Cell lines HL-60, RPMI and U266 were cultured in incubator at 37° C. in RPMI-1640 (Sigma R8758) medium with 10% of fetal bovine serum inactivated (FBS) and 2 mM glutamine (Sigma G7513).
as §7, §8, §9, §10, §11

[4] = system: U266, lymphoblast (myeloma)
Procedure: U266, lymphoblast (myeloma), ATCC® TIB196™
as §6, §7, §8, §9, §10, §11
Y=Bottom+(Top-Bottom)/(1+10̂{[(LogEC50-X)*HillSlope]},

[5] = system: SCLC cell lines; assay: Viability assay, summary over SCLC cell lines; assay type: cell-based; conditions: summary in words of Table 3
Procedure: MCF-7 and NCl-H187 cells were seeded at a density of 5000 cells/well; NCl-H82 were seeded at a density of 2500 cells/well; HL-60, RPMI, U266 and NCl-H510A at 10000 cells/well in 100 μl of medium in 96 well plates. After 24 h, the compounds to be tested were added to calculate the dose/response curve at the starting concentration of 100 μM with serial dilutions (1:1). Controls are the untreated cells. Each experiment was performed in triplicate.
(§1) Cells were incubated during 48-72 h in incubator under CO2 atmosphere at 37° C. Cell viability was measured by means of MTT (3-(4,5-dimethylthiazol-2-yl)-2,5-diphenyltetrazolium bromide) assay, Alamar Blue® (Biosource DAL1100) and Hexosaminidase activity test, consecutively, following manufacturer instructions.
Data analysis was performed calculating the percentage of cell viability normalized vs. the values of negative control, which was considered equal to 100%. The dose/response curve was fitted through the sigmoidal equation dose-response (variable slope) and the […] values were calculated as follow: […]

[6] = system: NCl-H187, epithelial (small cell lung cancer, SCLC); assay: Viability assay in NCl-H187; assay type: cell-based; conditions: H187 cell line, 48-72 h incubation
Procedure: NCl-H187, epithelial (small cell lung cancer, SCLC), ATCC-CRL-5804
(§2) Cell lines NCl-H82, NCl-H187 were cultured in incubator at 37° C. in RPMI-1640 (Sigma R8758) medium with 10% of fetal bovine serum inactivated (FBS) and 2 mM glutamine (Sigma G7513). Cell line NCl-H510A was cultured in incubator in F12K medium with 10% of fetal bovine serum inactivated (FBS).
(§3) During the amplification step and the assays adherent cells were rinsed with DPBS (Dulbecco's Phosphate Buffered Saline, Sigma D1283) three times and afterward treated for 5 minutes with trypsin ([…]) (Gibco-BRL, 15400054) in solution of DPBS at 37° C., and, once detached, transferred in the culturing medium. […] Cells were counted in a Neubauer chamber after labelling with Tripan-Blue. […]
as §1
(§4) MTT: 1. […] Absorbance at 570 nm was finally measured.
(§5) Alamar Blue: 10 μl Alamar Blue solution was added to each well and the plates were incubated for […] in the incubator. Fluorescence ratio at 535/590 (excitation/emission) was measured in Cytofluor (Millipore) fluorimeter. […]

[7] = system: NCl-H82, epithelial (small cell lung cancer, SCLC); assay: Viability assay in NCl-H82; assay type: cell-based; conditions: H82 cell line, 48-72 h incubation
Procedure: NCl-H82, epithelial (small cell lung cancer, SCLC), ATCC-CRL-5811
as §2, §3, §1, §4, §5

[8] = system: NCl-H510A, epithelial (small cell lung cancer, SCLC); assay: Viability assay in NCl-H510A; assay type: cell-based; conditions: H510A cell line, 48-72 h incubation
Procedure: NCl-510A, epithelial (small cell lung cancer, SCLC), ATCC-HBT-124
as §2, §3, §1, §4, §5

Compound | EC50 [1] [µM] | EC50 [2] [µM] | EC50 [3] [µM] | EC50 [4] [µM] | EC50 [6] [µM] | EC50 [7] [µM] | EC50 [8] [µM] | anti-cancer activity in SCLC cell lines [5] | activity in RPMI cell lines ([3]; summary in words of Table 2)
CC[C@H](C)[C@H](NC(=O)[C@H](CCCCN)NC(=O)[C@@H](NC(=O)[C@H](CCC(N)=O)NC(=O)[C@@H](N)CCCNC(=N)N)[C@@H](C)CC)C(=O)N[C@@H](Cc1c[nH]c2ccccc12)C(=O)N[C@@H](Cc1ccccc1)C(=O)N[C@@H](CCC(N)=O)C(=O)N[C@@H](CC(N)=O)C(=O)N[C@@H](CCCNC(=N)N)C(=O)N[C@@H](CCCNC(=N)N)C(=O)N[C@@H](CCSC)C(=O)N[C@@H](CCCCN)C(=O)N[C@@H](Cc1c[nH]c2ccccc12)C(=O)N[C@@H](CCCCN)C(=O)N[C@@H](CCCCN)C(=O)N[C@@H](CO)C(=O)N[C@@H](CCCCN)C(=O)N[C@@H](C)C(=O)N1CCC[C@H]1C(=O)N[C@@H](CCCCN)C(=O)N[C@H](C(=O)N[C@H](C(=O)N[C@H](C(=O)N[C@@H](CC(C)C)C(=O)N[C@@H](CO)C(=O)N[C@@H](CCCCN)C(=O)N[C@@H](C)C(=O)N[C@@H](CC(C)C)C(=O)N[C@@H](CCC(=O)O)C(=O)N[C@@H](Cc1ccc(O)cc1)C(=O)N[C@@H](CC(C)C)C(=O)N[C@@H](CCC(N)=O)C(=O)N[C@@H](C)C(N)=O)[C@@H](C)CC)C(C)C)C(C)C [IDP-LLCb02] | – | – | – | – | – | – | – | showed anti-cancer activity | –
RKRRNDLRSRFLALRDQ-NH2 (C-terminus assumed) [IDP-wtL05, Arg-Lys-Arg-Arg-Asn-Asp-Leu-Arg-Ser-Arg-Phe-Leu-Ala-Leu-Arg-Asp-Gln] | > 100 | > 100 | ~10 | > 100 | – | – | – | – | shows activity
RRRRRRRSKAPKVVILSKALEYLQA-NH2 [IDP-LLCb01] | – | – | – | – | ~5 | ~2.5 | ~5 | showed anti-cancer activity | –
CC(C)C[C@H](NC(=O)[C@H](C)NC(=O)[C@H](CC(C)C)NC(=O)C1(C)CCCC=CCCCCCCC(C)(NC(=O)[C@H](CCCNC(=N)N)NC(=O)[C@H](CCCCN)NC(=O)[C@@H](N)CCCNC(=N)N)C(=O)N[C@@H](CC(N)=O)C(=O)N[C@@H](CC(=O)O)C(=O)N[C@@H](CC(C)C)C(=O)N[C@@H](CCCNC(=N)N)C(=O)N[C@@H](CO)C(=O)N[C@@H](CCCNC(=N)N)C(=O)N1)C(=O)N[C@@H](CCCNC(=N)N)C(=O)N[C@@H](CC(=O)O)C(=O)N[C@@H](CCC(N)=O)C(N)=O (stereo partly shown) [IDP-LS05, RKRXNDLRSRXLALRDQ] (H-RKR[X1]NDLRSR[ξαMeNle(6-ylidene)]LALRDQ-NH2; staple 4-11; N-terminus and C-terminus assumed) | > 100 | ~5 | ~6 | > 100 | – | – | – | – | –

Second part, led by results:

EC50 [1] [µM] | EC50 [2] [µM] | EC50 [3] [µM] | EC50 [4] [µM] | EC50 [6] [µM] | EC50 [7] [µM] | EC50 [8] [µM] | Compound | anti-cancer activity in SCLC cell lines [5] | activity in RPMI cell lines ([3]; summary in words of Table 2)
> 100 | > 100 | ~15 | ~10 | – | – | – | CC(C)C[C@@H]1NC(=O)[C@H](C)NC(=O)[C@H](CCCCN)NC(=O)[C@H](CO)NC(=O)[C@H](CC(C)C)NC(=O)C(C)(NC(=O)[C@@H](NC(=O)[C@@H](NC(=O)[C@H](CCCCN)NC(=O)[C@@H]2CCCN2C(=O)[C@H](C)N)C(C)C)C(C)C)CCCCCCC=CCCCC(C)(C(=O)N[C@@H](CC(C)C)C(=O)N[C@@H](CCC(N)=O)C(=O)N[C@@H](C)C(N)=O)NC(=O)[C@H](CCC(=O)O)NC1=O (stereo partly shown) [IDP-LS16, APKVVXLSKALEXLQA] (H-APKVV[X1]LSKALE[ξαMeNle(6-ylidene)]LQA-NH2; staple 6-13; N-terminus and C-terminus assumed) | – | –
> 100 | > 100 | > 100 | > 100 | – | – | – | RRRRRRRRKRRNDLRSRFLALRDQ-NH2 [IDP-intwtL05] | – | –
> 100 | > 100 | ~10 | ~16 | – | – | – | CC[C@H](C)[C@H](NC(=O)[C@@H](NC(=O)[C@@H](NC(=O)[C@H](CCCCN)NC(=O)[C@@H]1CCCN1C(=O)[C@H](C)N)C(C)C)C(C)C)C(=O)N[C@@H](CC(C)C)C(=O)NC1(C)CCCCCCC=CCCCC(C)(C(=O)N[C@@H](C)C(N)=O)NC(=O)[C@H](CC(C)C)NC(=O)[C@H](Cc2ccc(O)cc2)NC(=O)[C@H](CCC(=O)O)NC(=O)[C@H](CC(C)C)NC(=O)[C@H](C)NC(=O)[C@H](CCCCN)NC1=O (stereo partly shown) [IDP-LS17, APKVVILXKALEYLXA] (H-APKVVIL[X1]KALEYL[ξαMeNle(6-ylidene)]A-NH2; staple 8-15 (inferred); N-terminus and C-terminus assumed) | – | –
~10 | ~7 | ~9 | ~10 | – | – | – | CC(C)C[C@@H]1NC(=O)[C@H](C)NC(=O)[C@H](CC(C)C)NC(=O)[C@H](Cc2ccccc2)NC(=O)[C@H](CCCNC(=N)N)NC(=O)[C@H](CO)NC(=O)[C@](C)(NC(=O)[C@H](CC(C)C)NC(=O)[C@H](CC(=O)O)NC(=O)[C@H](CC(N)=O)NC(=O)[C@H](CCCNC(=N)N)NC(=O)[C@H](CCCNC(=N)N)NC(=O)[C@H](CCCCN)NC(=O)[C@@H](N)CCCNC(=N)N)CCCCCCC=CCCC[C@@](C)(C(=O)N[C@@H](CC(=O)O)C(=O)N[C@@H](CCC(N)=O)C(N)=O)NC1=O [IDP-LS13, RKRRNDLXSRFLALXDQ] (H-RKRRNDL[R8]SRFLAL[S5]DQ-NH2; staple 8-15; N-terminus and C-terminus assumed) | – | –
> 100 | > 100 | ~7 | ~8 | – | – | – | CC(C)C[C@@H]1NC(=O)[C@H](C)NC(=O)[C@H](CC(C)C)NC(=O)[C@H](Cc2ccccc2)NC(=O)C(C)(NC(=O)[C@H](CO)NC(=O)[C@H](CCCNC(=N)N)NC(=O)[C@H](CC(C)C)NC(=O)[C@H](CC(=O)O)NC(=O)[C@H](CC(N)=O)NC(=O)[C@H](CCCNC(=N)N)NC(=O)[C@H](CCCNC(=N)N)NC(=O)[C@H](CCCCN)NC(=O)[C@@H](N)CCCNC(=N)N)CCCCCCC=CCCCC(C)(C(N)=O)NC(=O)[C@H](CC(=O)O)NC(=O)[C@H](CCCNC(=N)N)NC1=O (stereo partly shown) [IDP-LS15, RKRRNDLRSXFLALRDX] (H-RKRRNDLRS[X1]FLALRD[ξαMeNle(6-ylidene)]-NH2; staple 10-17 (inferred); N-terminus and C-terminus assumed) | – | –
